Legend:
Type in all cases: physicochemical
[1] = target: T1, RSV pre-fusion F (preF) protein of SEQ ID NO: 10 (Human respiratory syncytial virus A, UniProt P03420, D486N/DEL108-136/I379V/M447V/N67I/P102A/S215P); assay: UF/DF buffer exchange and slow freezing, aggregation by analytical SEC; conditions: for aggregation after buffer exchange and slow freezing: 1:50
T1 construct: made in house
Procedure: Buffer exchange of samples with and without stabilizing compound III was performed by ultrafiltration/diafiltration (UF/DF), using a Cogent μScale TFF system (Merck). […] Stabilizing compound III was preincubated with the sample and in one case also added to the buffer used for the UF/DF (see FIG. 12 labeled 1:3 & In Buffer). Runs were performed using Pelicon XL Biomax 50 cm2 filter cassettes. For each run, the system was flushed with MilliQ water at a crossflow of 30-50 mL/min, then the system was cleaned with NaOH 0.1M (recirculated for at least 5 min.) After this, the system was flushed again with MilliQ water until a pH of 7 was reached, followed by a 5 min. flush of the system with the desired buffer. Subsequently, the protein (50 mL) was added to the system for diafiltration against 7 diavolumes (350 mL) of the desired buffer.
(§1) Each formulation (pre and post UF/DF samples) was diluted to 0.3 mg/ml. 0.75 ml of each formulation was filled in glass injection vials with rubber stopper and sealed with aluminum caps. Vials were frozen to −70° C. in 24 hours under controlled conditions. Samples were subsequently thawed to RT and analyzed by analytical Size Exclusion Chromatography (SEC) to measure loss of RSV F trimer compared the sample that was kept at 4° C. In addition, the different formulations with and without stabilizing compound III were evaluated in DSF to measure the melting temperature. For experimental details see example 2.
Stabilizing compound III was added in a 1:50 trimer:compound ratio before the UD/DF and incubated for 24 hours at […] The excess of unbound stabilizing compound III is removed during the UF/DF process.
as §1, with “and post dialysis samples) was” for “and post UF/DF samples) was”, “Vials were slowly frozen to” for “Vials were frozen to”, “in 24 hours. Samples were” for “in 24 hours under controlled conditions. Samples were”, “and without compound III” for “and without stabilizing compound III”

[2] = target: T2, RSV pre-fusion F protein of SEQ ID NO: 10 (Human respiratory syncytial virus A, UniProt P03420, D486N/DEL108-136/I379V/M447V/N67I/P102A/S215P); conditions: phosphate buffer (Formulation 1), preF 0.3 mg/ml, 1:3 trimer:compound, RT to −70° C. in 24 hours
T2 construct: made in house
Procedure: The RSV pre-fusion F protein of SEQ ID NO: 10 was diluted to 0.3 mg/ml in phosphate buffer (Formulation 1) and 0.75 ml was filled in glass injection vials with rubber stopper and sealed with aluminum caps. Additionally, protein was diluted in the formulation buffers with inhibitor in a 1:3 trimer:compound ratio. One inhibitor binds one trimer so with a 1:3 ratio there is an excess of inhibitor. […] In 24 hours, samples were cooled down from RT to −70° C. Samples were thawed to RT and analyzed by analytical Size Exclusion Chromatography (SEC) to measure loss of RSV F trimer.
0.75 ml of each formulation was filled in glass injection vials with rubber stopper and sealed with aluminum caps. Additionally, protein was diluted in the formulation buffers and inhibitor was added in a 1:1, 1:3, 1:9, 1:27 and 1:50 trimer: compound ratio. Final compound concentrations were 1.7×10^−6 M, 5.2×10^−6 M, 1.6×10^−5M, 4.6×10^−5, and 8.6×10^−5 M, respectively. Vials were slowly frozen to −70° C. in 24 hours. Samples were subsequently thawed to RT and analyzed by analytical Size Exclusion Chromatography (SEC) to measure loss of RSV F trimer compared the sample that was kept at 4° C.

[3] = target: T2, RSV pre-fusion F protein of SEQ ID NO: 10; assay: Thermo-stability (Tm50) of RSV pre-fusion F by Differential Scanning Fluorimetry (DSF)
Procedure: Thermo-stability of the RSV pre-fusion F protein of SEQ ID NO: 10 was determined by Differential Scanning Fluorimetry (DSF) by monitoring the fluorescent emission of Sypro Orange Dye (ThermoFisher Scientific) in a 96 well optical qPCR plate. Inhibitors were diluted in DMSO prior to the experiment. Same amount of DMSO was added to pre-fusion F protein without inhibitor. To each well, 5 μl of 20× Sypro orange solution was added. Upon gradual increase of the temperature, from 25° C. to 95° C. (0.015° C./s), the polypeptides unfold and the fluorescent dye binds to the exposed hydrophobic residues leading to a characteristic change in emission. The melting curves were measured using a ViiA7 real time PCR machine (Applied Biosystems). The 1st derivative of the fluorescent signal (a.u.) versus the temperature (° C.) of three individual samples (technical triplicate), as well as the averaged melting curve, were plotted with Graphpad Prism software (Dan Diego, CA, US). From the averaged melting curve, the Tm50 was deducted (lowest point on the curve). The Tm50 values represent the temperature at which 50% of the protein is unfolded and thus are a measure for the temperature stability of the polypeptides. The increase of the Tm50 is reported as difference of the Tm50 of pre-fusion F protein with stabilizing antiviral compound compared with the Tm50 of pre-fusion F protein with only addition of DMSO (i.e. without antiviral compound).
(§2) Vials were frozen to −70° C. in 24 hours under controlled conditions. Samples were subsequently thawed to RT and analyzed by analytical Size Exclusion Chromatography (SEC) to measure loss of RSV F trimer compared the sample that was kept at 4° C. In addition, the dialyzed materials with and without stabilizing compound III were evaluated in DSF to measure the melting temperature. For experimental details see example 2.
as §1
as §1, with “and post dialysis samples) was” for “and post UF/DF samples) was”, “Vials were slowly frozen to” for “Vials were frozen to”, “in 24 hours. Samples were” for “in 24 hours under controlled conditions. Samples were”, “and without compound III” for “and without stabilizing compound III”

[4] = target: T1, RSV pre-fusion F (preF) protein of SEQ ID NO: 10; assay: Dialysis and slow freezing, trimer by analytical SEC
Procedure: as §2

Structure (SMILES): CS(=O)(=O)CCCn1c(Cn2c(=O)n(C3CC3)c3ccncc32)nc2cc(Br)ccc21 [Compound III, 3-[[5-bromo-1-(3-methylsulfonylpropyl)benzimidazol-2-yl]methyl]-1-cyclopropyl-imidazo[4,5-c]pyridin-2-one]
- aggregation after buffer exchange and subsequent slow freezing ([1]; 1:50 trimer:compound before UF/DF, irrespective of the buffer): protected from aggregation
- aggregation after buffer exchange and slow freezing ([1]; AP1 buffer): did not provide enough protections against aggregation
- aggregation after buffer exchange and slow freezing ([1]; Formulation 1 without PS20): provided protection against aggregation
- aggregation after UF/DF and slow freezing ([1]; Formulation buffer 6, irrespective of compound concentration): protected from aggregation
- trimer signal lost after slow freeze/thaw (analytical SEC) [2]: 2.0+/−2.0%
- Tm50 (DSF) after buffer exchange ([3]; 1:50, Formulation 1 and 2 without PS20, AP1): increased the Tm50 irrespective of the buffer
- Tm50 (DSF) after UF/DF ([3]; compound in the protein and in the diavolume): yielded the highest Tm50
- Tm50 (DSF), 1:30 ratio vs 1:3 ratio ([3]; dialysis experiment): yielded a higher Tm50 than a 1:3 ratio
- Tm50 (DSF) vs samples without compound ([3]; pre- and post-dialysis samples): higher
- Tm50 (DSF) over time after dialysis ([3]; stored at 4° C., Day 0, 21, 84): remained relatively constant
- trimer after dialysis and slow freezing ([4]; 1:3 and 1:30 trimer:compound): higher than 90%
- aggregation after slow freezing ([4]; pre- and post-dialysis samples, 1:3 and 1:30): protected from aggregation
